For data set [1] the following is noted: ref ChemIDplus; cited from earlier work.
Data set [2] deals with zebrafish larvae. The data set is described as follows: in vivo. The settings on record: for Absorption (whole body) (% uptake): 15 µg/ml (5 µg/ml scopolamine) immersion 1 hour, tissue vs medium concentration; for drug level (LC/MS/MS): 5 µg/ml 1 hour. The method, then:
(§1) Initial drug exposure assays were performed in larval zebrafish to identify a sufficiently high concentration of drug that could be detected by liquid chromatography/tandem mass spectrometry (LC/MS/MS) analysis without causing toxicity. Maximum tolerated concentration (MTC) was determined using n=6 larvae per group. […] Compounds of interest were prepared as 2 mg/ml stocks in dimethyl sulfoxide (DMSO). […] Larvae were incubated in the drug for 1 hour at room temperature then anaesthetised on ice. For whole uptake analysis, anaesthetised larvae were transferred to 1.5 ml microfuge tubes and all excess liquid was removed. 100 µl ice cold PBS was added, samples were briefly centrifuged and all excess liquid was removed. For brain versus body uptake analysis, larvae were anaesthetised by chilling prior to decapitation using fine iridectomy scissors and No. 5 watchmaker forceps. Head and body tissue samples were collected in separate microfuge tubes on ice and excess liquid removed. 100 µl ice cold PBS was added and samples were briefly centrifuged and all excess liquid removed. The weight of the tissue sample was measured and the samples were frozen at -20 °C prior to extraction for LC/MS/MS.
(§2) Test compound was added to the well containing 50 µg/ml verapamil and larvae were incubated for a further hour at room temperature prior to tissue collection as described. For subsequent LC/MS/MS analysis, tissue samples were thawed and after addition of an internal standard (clozapine) extracted into an organic solvent (tertiary-butyl methyl ether, t-bme). […] The analytes and internal standard were ionised under atmospheric pressure chemical ionisation (APCI) conditions operating in positive ion mode. Detection was via tandem mass spectrometry (MS/MS) using selected ion monitoring (SIM). All analyses were performed using a Finnigan LCQ quadrupole ion trap mass spectrometer.
(§3) A panel of 5 drugs known to either cross or not cross the BBB in mammals were selected to test in zebrafish larvae. Larvae of different ages were exposed to these compounds at non-toxic concentrations for 1 hour prior to collection of head and trunk tissue for analysis of drug concentration. A generic extraction method was developed and LC/MS/MS was performed to analyse the concentration of drug in head and trunk tissue in larvae of different ages. Drug/tissue concentrations were normalised against a standard and the relative amount of drug in head and trunk samples was compared to determine whether the drug distribution altered with larval age (Table 2).

In data set [3] the test system is zebrafish larvae. The data set is described as follows: Dye exclusion experiments (pericardial injection, brain fluorescence quantification). Format: in vivo. On the procedure: Stocks of 2% Evans blue (961 Da) and 10% sodium fluorescein (376 Da) in 0.9% saline were prepared and stored at 4 °C. Larvae were anaesthetised by immersion in 0.2 mg/ml 3-amino benzoic acid (MS222) prior to being immobilised and positioned laterally in 3% methyl cellulose in embryo medium such that the heart was accessible. Larvae and juveniles from 2 days post-fertilisation (d.p.f.) to 30 d.p.f. were injected with 0.5 to 2 nl (depending on age) of dye or saline control into the pericardial region, using a standard zebrafish microinjection apparatus. Fish were transferred to fresh embryo medium to recover from anaesthesia, then viewed using a fluorescence dissecting microscope at 1 hour intervals to determine the time of uptake of the dye into the circulation and the time at which dye had permeated from the circulation into non-vascular body tissue. Representative images of dye distribution in vivo were taken on a Zeiss AxioZoom V16 microscope with Apotome. Dye and saline injected larvae were anaesthetised at 4 or 6 hours after injection and fixed in 4% paraformaldehyde in PBS. Ten larvae per age group and injection treatment were embedded in Sakura Tissue-Tek OCT (Bayer, Newbury, UK) and frozen parasagittal sections were cut at 10 µm thickness.
Sections were visualised without mounting medium by fluorescence microscopy on an Olympus BX51 microscope. Three midline sagittal sections from each larva were identified and images were captured using a ColorView camera (Olympus) and AnalySis software (Soft Imaging System). The fluorescence intensity within the brain was quantified for each midline section of each larva in each treatment group using colour threshold and area measurements in AnalySis. Mean values, standard deviations and Student’s t-tests were calculated using Excel software (Microsoft Office).
Rhodamine 123 (R123) was dissolved in 10% ethanol/0.9% saline to make a 0.5 mg/ml stock. […] Quantification of fluorescence in the brain was performed as described above.

A short description of a further data set: in vivo. The settings on record: zebrafish, in vivo, immersion 1 hour. The method, then:
as §1, §2, §3

For a further data set, the system named is Abcb1/4/5. Description: Rhodamine 123 dye exclusion in the presence of verapamil. Format: in vivo, zebrafish. The settings on record: 8 d.p.f. and 10 d.p.f.; verapamil 50 µg/ml; 3 hours after injection. The method, then: Dye exclusion experiments on larvae at 3, 5, 8 and 10 d.p.f. were performed as described above using 0.2 nl R123. Some larvae were exposed to verapamil at 50 µg/ml for 2 hours prior to and during intrapericardial injection of R123 and for 3 hours after injection. At 3 hours after injection, larvae were anaesthetised and fixed in 4% PFA prior to processing for frozen sections. Quantification of fluorescence in the brain was performed as described above.

For data set [4] the following is noted: known from mammals, no reference given; cited from earlier work.
Where [5] appears, read: 15 µg/ml, Head concentration, 5 d.p.f.
Setting [6] is: 15 µg/ml, Head concentration, 8 d.p.f.
Where [7] appears, read: 15 µg/ml, Trunk concentration, 5 d.p.f.
[8] abbreviates: 15 µg/ml, Trunk concentration, 8 d.p.f.
The mark [9] stands for this setting: pericardial injection, brain fluorescence on frozen sections vs saline.

Scopolamine N-butyl bromide: the LogP in data set [1] is -1.11.

For `Clc1ccc2c(c1)CCc1cccnc1C2=C1CCNCC1` [Desloratadine], the “Absorption (whole body) (% uptake)” value with zebrafish larvae [2] (5 d.p.f.) is given as 14.8%; in the data set with zebrafish larvae [2] (10 d.p.f.), 28.5%.

For `Cc1cc(-c2ccc(/N=N/c3ccc4c(S(=O)(=O)O)cc(S(=O)(=O)O)c(N)c4c3O)c(C)c2)ccc1/N=N/c1ccc2c(S(=O)(=O)O)cc(S(=O)(=O)O)c(N)c2c1O` [Evans blue], the “larval age at which the injected dye is excluded from the brain” value (“larval age” below) in the data set on zebrafish larvae [3] (zebrafish, in vivo, 3 h) is listed as 5 d.p.f.

For `CN(C)CCOC(c1ccccc1)c1ccccc1` [Diphenhydramine], the concentration at 1 h in “in vivo” (setting [5]) was determined as 21600 ng/g; in the data set “in vivo” (setting [6]), 31200 ng/g; in the data set “in vivo” (setting [7]), 21100 ng/g; in “in vivo” (setting [8]), 24000 ng/g; in the data set “in vivo” (Head concentration, 10 d.p.f.) it was 52800 ng/g; in the data set “in vivo” (Trunk concentration, 10 d.p.f.) it was 54800 ng/g.

`CN1[C@@H]2C[C@@H](OC(=O)[C@H](CO)c3ccccc3)C[C@H]1[C@@H]1O[C@@H]12` [Scopolamine]: the “drug level (LC/MS/MS)” value with zebrafish larvae [2] (5 d.p.f.) is reported as “below the detection limits”. For the same compound, the “drug level (LC/MS/MS)” value with zebrafish larvae [2] (8 d.p.f.) is “below the detection limits”. Besides, in the data set with zebrafish larvae [2] (10 d.p.f., immersion 1 hour), the Head concentration result is on record as “.65 µg/g” and the Trunk concentration result is given as “.63 µg/g”.

In the case of `O=C([O-])c1ccccc1-c1c2ccc(=O)cc-2oc2cc([O-])ccc12.[Na+].[Na+]` [Sodium fluorescein, sodium fluorescein], the “larval age” value with zebrafish larvae [3] (setting [9]) is 10 d.p.f.

With `COC(=O)c1ccccc1-c1c2ccc(=N)cc-2oc2cc(N)ccc12` [Rhodamine 123], the “larval age” value with zebrafish larvae [3] (setting [9]) turned out to be 8 d.p.f. In addition, in the data set on Abcb1/4/5, the “exclusion of R123 from the brain in the presence of verapamil” value is “failed to be excluded”.

In the case of `O=C(CCCN1CCC(O)(c2ccc(Cl)cc2)CC1)c1ccc(F)cc1` [Haloperidol], the “BBB penetration in mammals” value in data set [4] is listed as “(penetrant)”. For the same compound, the “amount of drug absorbed, larval tissue as % of the medium concentration” value in the data set on zebrafish larvae [2] (1 hour exposure, lowest and highest value over drugs and ages) was determined as 949%. The “Absorption (whole body) (% uptake)” value with zebrafish larvae [2] (5 d.p.f.) is 732.6%; with zebrafish larvae [2] (8 d.p.f.), 949.5%; in the data set on zebrafish larvae [2] (10 d.p.f.) it was 713.5%. Also, the concentration at 1 h in the data set “in vivo” (setting [5]) was found to be 116000 ng/g; in the data set “in vivo” (setting [6]), 136000 ng/g; in the data set “in vivo” (setting [7]), 104000 ng/g; in “in vivo” (setting [8]) it was 149000 ng/g; in “in vivo” (Head concentration, 10 d.p.f.) it was 113000 ng/g; in the data set “in vivo” (Trunk concentration, 10 d.p.f.), 101000 ng/g.

One may read the LogP as a log measure of how a compound divides between an organic and an aqueous phase.
